# Experimental data reported in patent US20130316948A1, “GROWTH HORMONE RECEPTOR DEFICIENCY CAUSES A MAJOR REDUCTION IN PRO-AGING SIGNALING, CANCER AND DIABETES IN HUMANS” (UNIVERSITY OF SOUTHERN CALIFORNIA, priority 2011, published 2013).
# B1: IGFBP1: IGF-I inhibitor insulin-like growth factor-binding protein 1 (protein, UniProt P08833 26-259, looked up)
# Insulin-like growth …: APWQCAPCSAEKLALCPPVSASCSEVTRSAGCGCCPMCALPLGAACGVATARCARGLSCRALPGEQQPLHALTRGQGACVQESDASAPHAAEAGSPESPESTEITEEELLDNFHLMAPSEEDHSILWDAISTYDGSKALHVTNIKKWKEPCRIELYRVVESLAKAQETSGEEISKFYLPNCNKNGFYHSRQCETSMDGEAGLCWCVYPWNGKRIPGSPEIRGDPNCQIYFNVQN
# Tests used:
# [1] = tested on: pancreatic carcinoma cells; conditions: Mol Cancer Ther May 2009 8:1095-1105; cited from earlier work
# HMECs = assay: LDH cytotoxicity assay after H2O2 in epithelial cells incubated in serum; format: cell-based, human; conditions: 200 ng/ml IGF-I added to GHRD serum, 700 μM H2O2
# human GH = human GH (Homo sapiens, UniProt P01241); assay: Slot blot of anti-huGH activity in serum from mice immunized with huGH; format: in vivo, mouse; conditions: slot blot against immobilized human GH
# [2] = Body weight of mice immunized with human Growth Hormone; format: in vivo, mouse; conditions: 20 male and 20 female mice, versus time
# Description: FIG. 16A provides a plot of body weight of mice immunized with human Growth Hormone (huGH) (20 male and 20 female) versus time.
# This figure provides a plot of body weight of mice immunized with human Growth Hormone (huGH) (20 male and 20 female) versus time.
# [3] = Short term immunization with human GH before cyclophosphamide: body weight and complete blood count; format: in vivo, mouse; conditions: cyclophosphamide i.p., 300 mg/kg, CBC 7-days after CP
# Experimental: FIG. 17A provides plots of the body weight of mice with short term immunization (STI) with human GH (half-filled arrowheads) after cyclophosphamide treatment (cyclophosphamide (CP) i.p., 300 mg/kg, indicated by the solid arrowhead) (Sham means treated with buffer and no chemo);
# FIG. 17B provides a histogram of the complete blood count (CBC) 7-days after CP treatment (Data are presented as percentage of pre-chemo value);
# FIG. 17A provides plots of the body weight of mice with short term immunization (STI) with human GH (half-filled arrowheads) after cyclophosphamide treatment (cyclophosphamide (CP) i.p., 300 mg/kg, indicated by solid arrowheads). FIG. 17B provides a histogram of the complete blood count (CBC) 7-days after CP treatment (Data are presented as percentage of pre-chemo value).
# primary glial cells = assay: 24 hour LDH release from primary glial cells under oxidative damage; format: cell-based
# Experimental: FIG. 20 provides a plot of the 24 hour lactate dehydrogenase (LDH) release from the treatment of primary glial cells with the IGF-I inhibitor insulin-like growth factor-binding protein 1 (IGFBP1) and with insulin-like growth factor-binding protein 2 (IGFBP2). […] IGFBP1 is a strong IGF-I inhibtor. Other IGFBPs can even increase IGF-I signaling.
# human GH, sequence (P01241 27-217): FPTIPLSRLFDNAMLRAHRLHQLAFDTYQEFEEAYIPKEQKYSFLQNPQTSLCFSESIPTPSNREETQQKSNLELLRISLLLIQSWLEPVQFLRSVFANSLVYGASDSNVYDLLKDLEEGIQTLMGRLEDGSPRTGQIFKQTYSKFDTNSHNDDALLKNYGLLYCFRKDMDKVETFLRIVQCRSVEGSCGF
molecule,measurement,setting,value
AMG 479: fully human anti-insulin-like growth factor receptor type I monoclonal antibody,Effect on pancreatic carcinoma cells,[1],inhibits the growth and survival of pancreatic carcinoma cells
"IGF-I: insulin like growth factor-I, added at 200 ng/ml to GHRD serum",Effect on the higher cytotoxicity seen in GHRD serum,HMECs,completely reversed
huGH: human Growth Hormone used to immunize mice to generate inhibitory antibodies against GH,Immunized mice whose serum showed strong anti-huGH activity,human GH,34 out of 40
same,Body weight of immunized mice,[2],Lower body weight
same,"Effect of immunization on chemotherapy side effects (body weight, CBC)",[3],protective effect against chemotherapy side effects
B1,Effect on oxidative damage (LDH release),primary glial cells,protects them against oxidative damage
